Tests used:
rats [1] = test: LD50, i.v. (rats); assay type: in vivo
rats [2] = test: LD50, p.o. (rats); assay type: in vivo
[3] = test system: UV-induced corneal lesion; test: Inhibitory effect on UV-induced corneal lesions in rabbits (fluorescein penetration into the cornea, corneal epithelial barrier function); assay type: in vivo, rabbit (white rabbits); details: from Table 1 and FIG. 1
Procedure: The inhibitory effect of the present compound on UV-induced corneal lesions in rabbits was evaluated. Test substance: L-Ascorbyl DL-α-tocopherylphosphate potassium (abbreviation: EPC-K). Method: White rabbits were used; 4 animals assigned to the present compound treatment group and 3 assigned to a control group (the nictitating membrane was excised beforehand).
For UV irradiation, Hoya-Schott's HLS200U (dominant wavelength 365 nm) equipped with a 200 W mercury-xenon lamp as the light source was used. Ushio Electric's Unimeter UIT-101 was used for the determination of luminous energy.
One eye of each rabbit was kept open with an eye speculum and set at a distance of 43 cm from the light source so that the irradiation energy would be 0.024 J/cm^2. […]
The degree of rabbit corneal lesion was evaluated by the following method^1). Using fluorescein as a tracer, the fluorescence intensity of the tracer dye penetrating into the cornea within a predetermined region was measured for a quantitative assessment of the barrier function of the corneal epithelium (The corneal epithelium has a barrier function^2) to restrict penetration of any substance into the deep layer of the cornea and when an erosion or other injury occurs in the corneal epithelium, this barrier function is compromised so that the penetration of the substance into the depth of the cornea is increased). […]

## Cc1c(C)c2c(c(C)c1OP(=O)(O)OC1=C(O)[C@@H]([C@@H](O)CO)OC1=O)CCC(C)(CCCC(C)CCCC(C)CCCC(C)C)O2 (mixture of isomers) [EPC-K, L-ascorbyl DL-α-tocopheryl phosphate potassium]
Rats [1]
  LD50: ≥ 100 mg/kg
Rats [2]
  LD50: ≥ 5000 mg/kg
[3]
  inhibition of UV-induced corneal lesion (result in words): effectively inhibits UV-induced corneal lesion

Source: US5795912A, “Therapeutic composition for corneal impairment” (Senju Pharmaceutical, Co., Ltd., priority 1997, dated 1998)
